Source: publication PMC6265452, “An auxin controls bacterial antibiotics production” (Nucleic Acids Research, 2018)
Read-outs that look alike come from different tables or passages of the source.

Tests used:
AdmX [1] = target: T1, AdmX (Serratia plymuthica, UniProt P0DV33); assay: ITC (also DSF shift of […]°C, in vitro transcription repression); format: binding
AdmX [2] = target: T1, AdmX; assay: as above; format: binding; remark: listed apart in the source

T1 sequence (P0DV33 whole entry): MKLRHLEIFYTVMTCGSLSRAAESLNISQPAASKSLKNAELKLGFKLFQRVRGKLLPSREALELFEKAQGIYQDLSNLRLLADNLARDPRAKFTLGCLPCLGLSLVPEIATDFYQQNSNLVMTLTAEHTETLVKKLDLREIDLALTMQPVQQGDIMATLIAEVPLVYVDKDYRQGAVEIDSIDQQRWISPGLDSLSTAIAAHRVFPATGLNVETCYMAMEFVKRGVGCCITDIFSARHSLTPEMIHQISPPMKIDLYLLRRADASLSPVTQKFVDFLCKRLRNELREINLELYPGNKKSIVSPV

O=C(O)C(=O)Cc1c[nH]c2ccccc12 [IPA, indole-3-pyruvic acid]
Kd (AdmX [1]): 1.1 µM

O=C(O)Cc1c[nH]c2ccccc12 [IAA, indole-3-acetic acid]
Kd (AdmX [2]): 60.9 µM
